Results published in patent publication US5665390A, “Stabilized tablet formulation” (SmithKline Beecham Corporation, priority 1993, dated 1997).

What was measured:
steroid 5-α-reductase = conditions: cited from earlier work
[1] = stability of compound in blends/granulations versus compressed tablets; degradation products analyzed by LC/MS; format: physicochemical; conditions: compressed into direct compression or wet granulation tablets with excipients
Text: Although stable when blended or granulated with one or more commonly used pharmaceutical excipients such as, for example, lactose, tribasic calcium phosphate, silicon dioxide, corn starch, sodium starch glycolate, hydroxypropyl cellulose, hydroxypropyl methylcellulose, gelatin, magnesium stearate, microcrystalline cellulose, mannitol, and sorbitol, substituted 3,5-diene steroidal compounds were unexpectedly found to undergo a significant increase in the rate of formation of degradation products when compressed into tablets with such pharmaceutical excipients. This increase in degradation products occurs whether the substituted 3,5-diene steroidal compound and said excipients are formulated in direct compression tablets or in wet granulation tablets.

[2] = Accelerated Stability Screening Method (tablets stored at 85° C., degradation by HPLC); conditions: additive to tablets of substituted 3,5-diene steroidal compounds
Description: The stability of N-t-butyl-androst-3,5-diene-17β-carboxamide-3-carboxylic acid (compound A) in various tablet formulations was determined by HPLC analysis.
In Experiment 1 Compound A, microcrystalline cellulose, lactose, corn starch and sodium starch glycolate shown in Table I below, were mixed in the proportions shown. […] The tablets thus prepared were placed in stability chamber at 85° and the results of the stability test were recorded in Table 2 below.
The tablets thus prepared were placed in stability chamber at 85° C. and the results of the stability test were recorded in Table 3 below.
The tablets thus prepared were placed in stability chamber at 85° C. and the results of the stability test were recorded in Table 5 below.
In Experiment 4 Standard Granulation and BHT (for Batch 8) shown in Table 6 below, or stearic acid and BHT (for Batch 9) shown in Table 7 below, were mixed and granulated in the proportions shown and compressed into tablets of about 350 mg total tablet weight. The tablets thus prepared were placed in stability chamber at 85° C. and the results of the stability test were recorded in Tables 6 and 7 below.
The tablets thus prepared were placed in stability chamber at 85° C. and the results of the stability test were recorded in Table 8 below. […]

Structure (SMILES): CC(C)(C)NC(=O)[C@H]1CC[C@H]2[C@@H]3CC=C4C=C(C(=O)O)CC[C@]4(C)[C@H]3CC[C@]12C [Compound A, N-t-butyl-androst-3,5-diene-17β-carboxamide-3-carboxylic acid]
- inhibition of steroid 5-α-reductase (steroid 5-α-reductase): useful in inhibiting steroid 5αreductase
- formation of degradation products when compressed into tablets [1]: oxidative additions (the 7 keto oxidation product and others) which only occurred when blends or granulations of Compound A were compressed into tablets

Structure (SMILES): CCCCCCCCCCCCCCCCCC(=O)O [magnesium stearate]
- stabilizing effect on tablets (percentage of degradation products) [2]: do not exhibit such activity
